Reference: patent publication EP0568229A1, “Control of deposition of organic contaminants in pulp and papermaking systems” (BETZ EUROPE, INC., priority 1992, dated 1993)
Like-named read-outs stand apart in the source and are kept apart here.

Columns and labels:
[1] = for % Control: Table IV; for Percent Control of Pitch: Table VI
Method: The slurry contained 0.5% bleached hardwood Kraft fiber, approximately 2000 parts per million of the potassium salt of a fatty acid blend, approximately 200 parts per million calcium from calcium chloride and approximately 300 parts per million sodium carbonate. The slurry was maintained at 50 °C and at a pH of 11.
It was stirred gently by an overhead stirrer and subjected to ultrasonic energy for 10 minutes. The deposit weight was determined by subtracting the starting weight of the pan from the weight of the pan plus the deposit after completion of the test. […] Studies of this type were conducted using hydrophobically modified associative polymers of the type described in this invention.

[2] = Stickie coupon peel strength test modified to examine the effect of dilution; conditions: Concen. 50 ppm; for 1st Dilution: 30 minutes in distilled water after the initial immersion; for No Dilution: Table X
From the text: In order to establish the efficacy of the materials used in the present invention as deposition control agents, on plastic surfaces and specifically for adhesive contaminants of the sort found in recycled fiber, a laboratory test was devised utilizing adhesive-backed tapes as stickie coupons. The stickie coupon can be fabricated from any type of adhesive tape that will not disintegrate when placed in water. For the study, tapes made from a styrenebutadiene rubber and vinylic esters were used. Both of these potential organic contaminants are known to cause problems "stickies" in secondary fiber utilization. A second coupon was fabricated from polyester film such as the product marketed as MYLAR by the DuPont Chemical Company. This material was chosen because papermachine forming fabrics are frequently made of polyester which is susceptible to considerable problem caused by stickies.
500 mL of solutions in 600 mL beakers containing various deposit control agents are placed in a water bath heated to 50 °C. The tape and the polyester film coupons are placed in the test solution so the adhesive side of the coupon faces away from the polyester film coupon. After 1 hour of immersion, the adhesive side of the stickie coupon is placed in contact with the polyester coupon and pressed to 1000 pound force.
The average peel strength of the bond formed between the tape coupon and the polyester coupon was measured with an Instron tensile tester. The peel strength of the bond formed between the stickie tape coupon and the polyester coupon was interpreted as a measure of the tendency for an organic contaminant to attach to components of a paper-machine and cause runnability or product quality problems. More specifically, this indicates the tendency of a stickies deposit to form on a plastic surface.
Papermaking consists of various processes which can be affected by sudden changes in pH, temperature, dilution (i.e., concentration), shear force, etc. Severe changes in these parameters can cause system shock which adversely impact paper production. Deposit control agents that can strongly adsorb onto the organic contaminant surface and resist the desorbing effects of dilution are highly desirable. Not only will deposition control be improved, but also the required dosage will be reduced, while negative side effects, such as forming and wet-end interferences, will be reduced or eliminated. The procedure outlined in Table VIII was modified to examine the effect of dilution on deposition control. Dilution was accomplished by immersing the adhesive tape and MYLAR in distilled water for 30 minutes after the initial immersion. This can be repeated as many times as desired.

Substance | % Control ([1]; 10 ppm) [%] | Percent Control of Pitch ([1]; 10 ppm) [%] | % Control ([1]; 50 ppm) [%] | Percent Control of Pitch ([1]; 50 ppm) [%] | 2nd Dilution [2] | 3rd Dilution [2] | 4th Dilution [2] | 1st Dilution [2] | No Dilution [2]
Nonyl Phenol Ethoxylate [Nonyl Phenol Ethoxylate (Surfonic N-95)] | 9 | 9 | 81 | 81 |  |  |  |  | 
dodecylphenoxypoly(ethyleneoxy) ethanol [Sample 3] |  |  |  |  | 16 | 5 | 0 | 34 | 100
nonylphenol ethoxylate [Sample 2] |  |  |  |  | 2 | 0 | 0 | 8 | 100
octylphenoxy poly(ethyleneoxy)ethanol [Sample 1] |  |  |  |  | 0 | 0 | 0 | 5 | 100
